As a reminder, the fold induction is the ratio of treated to control signal.

A short description of the assay: Functional Dkk1-LRP5-TCF-Luciferase Assay in U2OS Cells (table columns: A=MAX FOLD Induction/DMSO CONTROL; B=fold induction @ 2.0 uM; C=fold induction @ 20.0 uM). The format is cell-based, Human. The note with it: Homo sapiens, U2OS; for fold induction at 2 µM: 2.0 uM compound; for fold induction at 20 µM: 20.0 uM compound. In a few lines: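 U2OS cells co-transfected with 16×TCF-TK-firefly luciferase, TK-Renilla control, Wnt3a and Dkk1, then frozen; thawed cells (~5,000/well, ~5% FBS, phenol red-free RPMI) incubated ~20 h at 37° C. with compound (0.25% DMSO). Firefly luminescence (Bright-Glo) normalized to DMSO mean as fold induction.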

Take `c1coc(-c2nc3cc(-c4ccc5ccccc5c4)cnc3n2C2CCNCC2)c1` [2-(2-furyl)-6-(2-naphthyl)-3-piperidin-4-yl-3H-imidazo[4,5-b]pyridine]: the fold induction at 2 µM is 1.27 and the fold induction at 20 µM came out at 0.01. Consider `FC(F)(F)c1ccccc1-c1nc2c(-c3ccc4ccccc4c3)ccnc2n1C1CCNCC1` [7-(2-naphthyl)-3-piperidin-4-yl-2-[2-(trifluoromethyl)phenyl]-3H-imidazo[4,5-b]pyridine], for which the fold induction at 2 µM came out at 1.72. On the same count and under the same terms, under `CC(C)c1ccc(-c2nc3c(-c4ccc5ccccc5c4)ccnc3n2C2CCNCC2)cc1` [2-(4-isopropylphenyl)-7-(2-naphthyl)-3-piperidin-4-yl-3H-imidazo[4,5-b]pyridine] stands 1.03. Regarding `O=C(N1CCOCC1)N1CCC(n2cnc3c(-c4ccc5ccccc5c4)ccnc32)CC1` [3-[1-(morpholin-4-ylcarbonyl)piperidin-4-yl]-7-(2-naphthyl)-3H-imidazo[4,5-b]pyridine], the fold induction at 2 µM turned out to be 1.08 and the fold induction at 20 µM was 1.25. In the case of `Fc1cccc(-c2nc3c(-c4ccc5ccccc5c4)ccnc3n2C2CCNCC2)c1` [2-(3-fluorophenyl)-7-(2-naphthyl)-3-piperidin-4-yl-3H-imidazo[4,5-b]pyridine], the fold induction at 2 µM was determined as 1.55. The same measure, in the same setting: under `c1ccc2cc(-c3cnc4c(c3)nc(-c3ccc5occc5c3)n4C3CCNCC3)ccc2c1` [2-(1-benzofuran-5-yl)-6-(2-naphthyl)-3-piperidin-4-yl-3H-imidazo[4,5-b]pyridine] stands 0.98. For the compound `[O-][n+]1ccc(-c2nc3c(-c4ccc5ccccc5c4)ccnc3n2C2CCNCC2)cc1` [7-(2-naphthyl)-2-(1-oxidopyridin-4-yl)-3-piperidin-4-yl-3H-imidazo[4,5-b]pyridine], the fold induction at 2 µM was 1.45 and the fold induction at 20 µM is 0.06. `O=[N+]([O-])c1cccc(-c2nc3cc(-c4ccc5ccccc5c4)cnc3n2C2CCNCC2)c1` [6-(2-naphthyl)-2-(3-nitrophenyl)-3-piperidin-4-yl-3H-imidazo[4,5-b]pyridine]: the fold induction at 2 µM stood at 1.3.

Take `c1ccc2cc(-c3ccnc4c3nc(-c3cccc5cccnc35)n4C3CCNCC3)ccc2c1` [8-[7-(2-naphthyl)-3-piperidin-4-yl-3H-imidazo[4,5-b]pyridin-2-yl]quinoline]: the fold induction at 20 µM turned out to be 1.01. In the case of `CC(C)Cc1nc2cc(-c3ccc4ccccc4c3)cnc2n1C1CCNCC1` [2-isobutyl-6-(2-naphthyl)-3-piperidin-4-yl-3H-imidazo[4,5-b]pyridine], the fold induction at 2 µM worked out at 1.13.

Consider `Cc1ccc(-c2nc3cc(-c4ccc5ccccc5c4)cnc3n2C2CCNCC2)c(C)c1` [2-(2,4-dimethylphenyl)-6-(2-naphthyl)-3-piperidin-4-yl-3H-imidazo[4,5-b]pyridine], for which the fold induction at 2 µM came out at 1.31. For `O=[N+]([O-])c1ccc(-c2nc3c(-c4ccc5ccccc5c4)ccnc3n2C2CCNCC2)s1` [7-(2-naphthyl)-2-(5-nitro-2-thienyl)-3-piperidin-4-yl-3H-imidazo[4,5-b]pyridine], the fold induction at 2 µM was 1.83 and the fold induction at 20 µM is 0.01. `c1ccc2cc(-c3ccnc4c3nc(-c3csc5ccccc35)n4C3CCNCC3)ccc2c1` [2-(1-benzothien-3-yl)-7-(2-naphthyl)-3-piperidin-4-yl-3H-imidazo[4,5-b]pyridine]: the fold induction at 2 µM turned out to be 1.28. On the same count and under the same terms, next, `O=[N+]([O-])c1ccccc1-c1nc2c(-c3ccc4ccccc4c3)ccnc2n1C1CCNCC1` [7-(2-naphthyl)-2-(2-nitrophenyl)-3-piperidin-4-yl-3H-imidazo[4,5-b]pyridine]: 1.14.

Regarding `c1ccc2cc(-c3cnc4c(c3)nc(-c3cccc5ncccc35)n4C3CCNCC3)ccc2c1` [5-[6-(2-naphthyl)-3-piperidin-4-yl-3H-imidazo[4,5-b]pyridin-2-yl]quinoline], the fold induction at 2 µM worked out at 1.29.

As to `c1ccc(Oc2cccc(-c3nc4c(-c5ccc6ccccc6c5)ccnc4n3C3CCNCC3)c2)cc1` [7-(2-naphthyl)-2-(3-phenoxyphenyl)-3-piperidin-4-yl-3H-imidazo[4,5-b]pyridine], the fold induction at 2 µM was 1.4. Regarding `CC(C)(C)c1ccc(-c2nc3cc(-c4ccc5ccccc5c4)cnc3n2C2CCNCC2)cc1` [2-(4-tert-butylphenyl)-6-(2-naphthyl)-3-piperidin-4-yl-3H-imidazo[4,5-b]pyridine], the fold induction at 2 µM was 1.13. Same read-out and setting: next, `CC(C)c1ccc(-c2nc3cc(-c4ccc5ccccc5c4)cnc3n2C2CCNCC2)cc1` [2-(4-isopropylphenyl)-6-(2-naphthyl)-3-piperidin-4-yl-3H-imidazo[4,5-b]pyridine]: 1.14.

Consider `CCCc1nc2cc(-c3ccc4ccccc4c3)cnc2n1C1CCNCC1` [6-(2-naphthyl)-3-piperidin-4-yl-2-propyl-3H-imidazo[4,5-b]pyridine], for which the fold induction at 2 µM stood at 1.38 and the fold induction at 20 µM was 0.01. The corresponding values for `Cn1c(=O)n(C2CCN(S(C)(=O)=O)CC2)c2nccc(-c3ccc4ccccc4c3)c21` [1-methyl-3-[1-(methylsulfonyl)piperidin-4-yl]-7-(2-naphthyl)-1,3-dihydro-2H-imidazo[4,5-b]pyridin-2-one] are 1.52 and 0.97. Take `c1ccc2cc(-c3cnc4c(c3)nc(-c3cccc5cccnc35)n4C3CCNCC3)ccc2c1` [8-[6-(2-naphthyl)-3-piperidin-4-yl-3H-imidazo[4,5-b]pyridin-2-yl]quinoline]: the fold induction at 2 µM was found to be 1.61. For the compound `Cc1cccc(-c2nc3cc(-c4ccc5ccccc5c4)cnc3n2C2CCNCC2)c1` [2-(3-methylphenyl)-6-(2-naphthyl)-3-piperidin-4-yl-3H-imidazo[4,5-b]pyridine], the fold induction at 2 µM amounted to 1.33. On to `Cc1nc2c(-c3ccc4ccccc4c3)ccnc2n1[C@@H]1CCNC1` [2-methyl-7-(2-naphthyl)-3-[(3R)-pyrrolidin-3-yl]-3H-imidazo[4,5-b]pyridine], for which the fold induction at 2 µM is 1.44 and the fold induction at 20 µM was 0.55. Consider `O=[N+]([O-])c1ccc(O)cc1-c1nc2c(-c3ccc4ccccc4c3)ccnc2n1C1CCNCC1` [3-[7-(2-naphthyl)-3-piperidin-4-yl-3H-imidazo[4,5-b]pyridin-2-yl]-4-nitrophenol], for which the fold induction at 2 µM stood at 1.4 and the fold induction at 20 µM worked out at 0.98. With `Oc1ccccc1-c1nc2c(-c3ccc4ccccc4c3)ccnc2n1C1CCNCC1` [2-[7-(2-naphthyl)-3-piperidin-4-yl-3H-imidazo[4,5-b]pyridin-2-yl]phenol], the fold induction at 2 µM is 1.35 and the fold induction at 20 µM stood at 0.01.

As to `Clc1nc2ccccc2cc1-c1nc2c(-c3ccc4ccccc4c3)ccnc2n1C1CCNCC1` [2-chloro-3-[7-(2-naphthyl)-3-piperidin-4-yl-3H-imidazo[4,5-b]pyridin-2-yl]quinoline], the fold induction at 2 µM stood at 1.6. Same read-out and setting: under `COc1ccccc1-c1nc2c(-c3ccc4ccccc4c3)ccnc2n1C1CCNCC1` [2-(2-methoxyphenyl)-7-(2-naphthyl)-3-piperidin-4-yl-3H-imidazo[4,5-b]pyridine] stands 1.99. With `O=C(N1CCC(n2cnc3c(-c4ccc5ccccc5c4)ccnc32)CC1)C(F)(F)F` [7-(2-naphthyl)-3-[1-(trifluoroacetyl)piperidin-4-yl]-3H-imidazo[4,5-b]pyridine], the fold induction at 2 µM was determined as 1.58 and the fold induction at 20 µM was found to be 0.39.

Consider `c1ccc2cc(-c3ccnc4c3nc(-c3ccc5ccccc5c3)n4C3CCNCC3)ccc2c1` [2,7-di-2-naphthyl-3-piperidin-4-yl-3H-imidazo[4,5-b]pyridine], for which the fold induction at 2 µM is 1.02.

As to `O=C(N1CCOCC1)N1CCC(n2c(=O)[nH]c3c(-c4ccc5ccccc5c4)ccnc32)CC1` [3-[1-(morpholin-4-ylcarbonyl)piperidin-4-yl]-7-(2-naphthyl)-1,3-dihydro-2H-imidazo[4,5-b]pyridin-2-one], the fold induction at 2 µM stood at 1.33 and the fold induction at 20 µM is 1.02.

Consider `Cn1cc(-c2nc3c(-c4ccc5ccccc5c4)ccnc3n2C2CCNCC2)c2ccccc21` [2-(1-methyl-1H-indol-3-yl)-7-(2-naphthyl)-3-piperidin-4-yl-3H-imidazo[4,5-b]pyridine], for which the fold induction at 2 µM was 1.23. In the case of `Cc1ccc2[nH]cc(-c3nc4c(-c5ccc6ccccc6c5)ccnc4n3C3CCNCC3)c2c1` [2-(5-methyl-1H-indol-3-yl)-7-(2-naphthyl)-3-piperidin-4-yl-3H-imidazo[4,5-b]pyridine], the fold induction at 2 µM was found to be 1.92. With `CCn1cnc(-c2nc3c(-c4ccc5ccccc5c4)ccnc3n2C2CCNCC2)c1C` [2-(1-ethyl-5-methyl-1H-imidazol-4-yl)-7-(2-naphthyl)-3-piperidin-4-yl-3H-imidazo[4,5-b]pyridine], the fold induction at 2 µM was found to be 1.88.

Consider `c1ccc2cc(-c3ccnc4c3nc(C3CCCC3)n4C3CCNCC3)ccc2c1` [2-cyclopentyl-7-(2-naphthyl)-3-piperidin-4-yl-3H-imidazo[4,5-b]pyridine], for which the fold induction at 2 µM turned out to be 1.46. As for `c1ccc2cc(-c3ccnc4c3nc(-c3ccc5c(c3)OCCO5)n4C3CCNCC3)ccc2c1` [2-(2,3-dihydro-1,4-benzodioxin-6-yl)-7-(2-naphthyl)-3-piperidin-4-yl-3H-imidazo[4,5-b]pyridine], the fold induction at 2 µM turned out to be 1.18. For `c1csc(-c2nc3cc(-c4ccc5ccccc5c4)cnc3n2C2CCNCC2)c1` [6-(2-naphthyl)-3-piperidin-4-yl-2-(2-thienyl)-3H-imidazo[4,5-b]pyridine], the fold induction at 2 µM amounted to 1.04. The same measure, in the same setting: under `CC(=O)n1cc(-c2nc3c(-c4ccc5ccccc5c4)ccnc3n2C2CCNCC2)c2ccccc21` [2-(1-acetyl-1H-indol-3-yl)-7-(2-naphthyl)-3-piperidin-4-yl-3H-imidazo[4,5-b]pyridine] stands 1.48. The same measure, in the same setting: next, `O=[N+]([O-])c1cccc(-c2nc3c(-c4ccc5ccccc5c4)ccnc3n2C2CCNCC2)c1` [7-(2-naphthyl)-2-(3-nitrophenyl)-3-piperidin-4-yl-3H-imidazo[4,5-b]pyridine]: 1.29.

The values above are taken from patent US20090069319A1, “IMIDAZOPYRIDINE ANALOGS AND THEIR USE AS AGONISTS OF THE WNT-BETA-CATENIN CELLULAR MESSAGING SYSTEM” (Wyeth, priority 2007, published 2009).
